Experimental data published in ChEMBL document CHEMBL1154065, “Discovery of novel P3 sulfonamide-capped inhibitors of HCV NS3 protease. Inhibitors with improved cellular potencies” (Bioorg Med Chem, 2009).
pKi: −log10 of the molar value.

Columns and labels:
[1] = Inhibition of HCV NS3 protease by continuous spectrophotometric assay; set-up: species or system Hepacivirus hominis
[2] = system: Hepatitis C virus; assay: Antiviral activity against Hepatitis C virus infected in human hepatoma cell by replicon assay; assay type: functional, Hepacivirus hominis
[3] = system: Rattus norvegicus; assay: AUC (0 to 6 hrs) in po dosed rat; assay type: ADME, organism-based, Plasma; set-up: time < 6 hr, route oral; details: in vivo
[4] = system: Hepatitis C virus; assay: Ratio of boceprevir EC90 to compound EC90 for Hepatitis C virus infected in human hepatoma cell; assay type: functional, Hepacivirus hominis
[5] = Selectivity for HCV NS3 protease over human neutrophil elastase
[6] = AUC (0 to 6 hrs) in monkey at 3 mg/kg, po; assay type: ADME, organism-based, Macaca mulatta; set-up: time < 6 hr, dose 3 mg/kg, route oral; details: rhesus monkey, plasma
[7] = AUC (0 to 6 hrs) in rat at 10 mg/kg, po; assay type: ADME, organism-based; set-up: time < 6 hr, dose 10 mg/kg, route oral; details: plasma

## CC(C)(C)[C@H](NC(=O)N[C@H](CNS(=O)(=O)c1ccccc1)C(C)(C)C)C(=O)N1C[C@H]2[C@@H]([C@H]1C(=O)NC(CC1CCC1)C(=O)C(N)=O)C2(C)C (some centres undefined)
[1]
  pKi: 7.89

## CN(C[C@@H](NC(=O)N[C@H](C(=O)N1C[C@H]2[C@@H]([C@H]1C(=O)NC(CC1CCC1)C(=O)C(N)=O)C2(C)C)C(C)(C)C)C(C)(C)C)S(=O)(=O)c1ccccc1 (some centres undefined)
[2]
  EC90: 75 nM
[1]
  pKi: 8.30

## CC(C)[C@@H](CNS(C)(=O)=O)NC(=O)N[C@H](C(=O)N1C[C@H]2[C@@H]([C@H]1C(=O)NC(CC1CCC1)C(=O)C(N)=O)C2(C)C)C(C)(C)C (some centres undefined)
[2]
  EC90: 2000 nM
[1]
  pKi: 7.51

## CC(C)[C@@H](CNS(=O)(=O)c1ccccc1)NC(=O)N[C@H](C(=O)N1C[C@H]2[C@@H]([C@H]1C(=O)NC(CC1CC1)C(=O)C(N)=O)C2(C)C)C(C)(C)C (some centres undefined)
[2]
  EC90: 550 nM
[1]
  pKi: 8.00

## CC(C)[C@@H](CN(C)S(=O)(=O)c1ccccc1)NC(=O)N[C@H](C(=O)N1C[C@H]2[C@@H]([C@H]1C(=O)NC(CC1CC1)C(=O)C(N)=O)C2(C)C)C(C)(C)C (some centres undefined)
[2]
  EC90: 130 nM
[1]
  pKi: 8.10

## CC(C)[C@@H](CN(C)S(=O)(=O)c1cccs1)NC(=O)N[C@H](C(=O)N1C[C@H]2[C@@H]([C@H]1C(=O)NC(CC1CCC1)C(=O)C(N)=O)C2(C)C)C(C)(C)C (some centres undefined)
[2]
  EC90: 100 nM
[1]
  pKi: 7.92

## CN(C[C@@H](NC(=O)N[C@H](C(=O)N1C[C@H]2[C@@H]([C@H]1C(=O)NC(CC1CCC1)C(=O)C(N)=O)C2(C)C)C(C)(C)C)C(C)(C)C)S(C)(=O)=O (some centres undefined)
[3]
  AUC: 0.06 µM·h
[4]
  Ratio: 2
[2]
  EC90: 150 nM
[1]
  pKi: 8.30

## C=CCNC(=O)C(=O)C(CCC)NC(=O)[C@@H]1[C@@H]2[C@H](CN1C(=O)[C@@H](NC(=O)N[C@H](CN(C)S(=O)(=O)CC)C(C)(C)C)C(C)(C)C)C2(C)C (some centres undefined)
[3]
  AUC: 0.34 µM·h
[2]
  EC90: 150 nM
[1]
  pKi: 8.00

## CN(CC1(NC(=O)N[C@H](C(=O)N2C[C@H]3[C@@H]([C@H]2C(=O)NC(CC2CCC2)C(=O)C(N)=O)C3(C)C)C(C)(C)C)CCCCC1)S(=O)(=O)c1ccccc1 (some centres undefined)
[2]
  EC90: 400 nM
[1]
  pKi: 7.92

## CC(C)C(CN(C)S(=O)(=O)c1ccccc1)NC(=O)N[C@H](C(=O)N1C[C@H]2[C@@H]([C@H]1C(=O)NC(CC1CCC1)C(=O)C(N)=O)C2(C)C)C(C)(C)C (single isomer, unassigned)
[2]
  EC90: 140 nM
[5]
  Selectivity ratio: 3100
[1]
  pKi: 8.10

## CC(C)C[C@@](C)(CN(C)S(=O)(=O)c1ccccc1)NC(=O)N[C@H](C(=O)N1C[C@H]2[C@@H]([C@H]1C(=O)NC(CC1CCC1)C(=O)C(N)=O)C2(C)C)C(C)(C)C (some centres undefined)
[1]
  pKi: 7.10

## CC(C)[C@@H](CN(C)S(C)(=O)=O)NC(=O)N[C@H](C(=O)N1C[C@H]2[C@@H]([C@H]1C(=O)NC(CC1CCC1)C(=O)C(N)=O)C2(C)C)C(C)(C)C (some centres undefined)
[2]
  EC90: 350 nM
[1]
  pKi: 8.40

## CC(C)(C)NC(=O)N[C@H](C(=O)N1C[C@H]2[C@@H]([C@H]1C(=O)NC(CC1CCC1)C(=O)C(N)=O)C2(C)C)C(C)(C)C (some centres undefined) [BOCEPREVIR]
[2]
  EC90: 350 nM
[5]
  Selectivity ratio: 2200
[1]
  pKi: 7.85

## CN(C[C@@H](NC(=O)N[C@H](C(=O)N1C[C@H]2[C@@H]([C@H]1C(=O)NC(CC1CCC1)C(=O)C(N)=O)C2(C)C)C(C)(C)C)C(C)(C)C)S(=O)(=O)C1CC1 (some centres undefined)
[3]
  AUC: 0.09 µM·h
[2]
  EC90: 90 nM
[1]
  pKi: 8.30

## CN(C[C@@H](NC(=O)N[C@H](C(=O)N1C[C@H]2[C@@H]([C@H]1C(=O)NC(CC1CCC1)C(=O)C(N)=O)C2(C)C)C(C)(C)C)C(C)(C)C)S(=O)(=O)c1cccs1 (some centres undefined)
[3]
  AUC: 0.11 µM·h
[2]
  EC90: 60 nM
[1]
  pKi: 8.40

## C=CCNC(=O)C(=O)C(CCC)NC(=O)[C@@H]1[C@@H]2[C@H](CN1C(=O)[C@@H](NC(=O)N[C@H](CN(C)S(=O)(=O)c1ccccn1)C(C)(C)C)C(C)(C)C)C2(C)C (some centres undefined)
[3]
  AUC: 1.02 µM·h
[2]
  EC90: 180 nM
[1]
  pKi: 7.85

## C=CCNC(=O)C(=O)C(CCCC)NC(=O)[C@@H]1[C@@H]2[C@H](CN1C(=O)[C@@H](NC(=O)N[C@H](CN(C)S(=O)(=O)CC)C(C)(C)C)C1Cc3ccccc3C1)C2(C)C (some centres undefined)
[4]
  Ratio: 5
[2]
  EC90: 60 nM
[6]
  AUC(0-t) at 6 h: 0.69 µM·h
[1]
  pKi: 8.22
[7]
  AUC(0-t) at 6 h: 1.2 µM·h

## C=CCNC(=O)C(=O)C(CCCC)NC(=O)[C@@H]1[C@@H]2[C@H](CN1C(=O)[C@@H](NC(=O)N[C@H](CN(C)S(=O)(=O)N(C)C)C(C)(C)C)C1CCCCC1)C2(C)C (some centres undefined)
[2]
  EC90: 80 nM
[1]
  pKi: 8.22
[7]
  AUC(0-t) at 6 h: 1.74 µM·h

## CC(C)[C@H](NC(=O)N[C@H](C(=O)N1C[C@H]2[C@@H]([C@H]1C(=O)NC(CC1CC1)C(=O)C(N)=O)C2(C)C)C(C)(C)C)C(=O)OC(C)(C)C (some centres undefined)
[2]
  EC90: 200 nM
[1]
  pKi: 8.22

## CC[C@H](C)[C@@H](CN(C)S(=O)(=O)c1ccccc1)NC(=O)N[C@H](C(=O)N1C[C@H]2[C@@H]([C@H]1C(=O)NC(CC1CCC1)C(=O)C(N)=O)C2(C)C)C(C)(C)C (some centres undefined)
[2]
  EC90: 250 nM
[1]
  pKi: 7.89

## CC(C)[C@@H](CNS(=O)(=O)c1cccs1)NC(=O)N[C@H](C(=O)N1C[C@H]2[C@@H]([C@H]1C(=O)NC(CC1CCC1)C(=O)C(N)=O)C2(C)C)C(C)(C)C (some centres undefined)
[2]
  EC90: 600 nM
[1]
  pKi: 7.64

## C=CCNC(=O)C(=O)C(CCC)NC(=O)[C@@H]1[C@@H]2[C@H](CN1C(=O)[C@@H](NC(=O)N[C@H](CN(C)S(=O)(=O)CC)C(C)(C)C)C1Cc3ccccc3C1)C2(C)C (some centres undefined)
[2]
  EC90: 100 nM
[1]
  pKi: 8.22

## C=CCNC(=O)C(=O)C(CCC)NC(=O)[C@@H]1[C@@H]2[C@H](CN1C(=O)[C@@H](NC(=O)N[C@H](CN(C)S(=O)(=O)c1cccs1)C(C)(C)C)C(C)(C)C)C2(C)C (some centres undefined)
[3]
  AUC: 1.38 µM·h
[2]
  EC90: 260 nM
[1]
  pKi: 8.00

## CCS(=O)(=O)N(C)C[C@@H](NC(=O)N[C@H](C(=O)N1C[C@H]2[C@@H]([C@H]1C(=O)NC(CC1CCC1)C(=O)C(N)=O)C2(C)C)C(C)(C)C)C(C)(C)C (some centres undefined)
[2]
  EC90: 150 nM
[1]
  pKi: 8.40

## CC(C)[C@H](CN(C)S(=O)(=O)c1ccccc1)NC(=O)N[C@H](C(=O)N1C[C@H]2[C@@H]([C@H]1C(=O)NC(CC1CC1)C(=O)C(N)=O)C2(C)C)C(C)(C)C (some centres undefined)
[2]
  EC90: 130 nM
[5]
  Selectivity ratio: 680
[1]
  pKi: 8.22

## C=CCNC(=O)C(=O)C(CCC)NC(=O)[C@@H]1[C@@H]2[C@H](CN1C(=O)[C@@H](NC(=O)N[C@H](CN(C)S(=O)(=O)N(C)C)C(C)(C)C)C1Cc3ccccc3C1)C2(C)C (some centres undefined)
[2]
  EC90: 100 nM
[1]
  pKi: 7.96
